Assay results taken from article PMC12067444, “Synthesis and Pharmacological Characterization of Novel Peripheral Cannabinoid-1 Receptor Blockers Based on a Tricyclic Scaffold” (Journal of Medicinal Chemistry, 2025).
Like-named read-outs stand apart in the source and are kept apart here.

Key:
mouse CB1R = molecular target: T1, mouse CB1R (Mus musculus, UniProt P47746); assay: Radioligand competition displacement binding, [3H]CP-55,940, mouse brain membranes
T1 construct: crude membranes from mouse brain; from tissue; host or cells: mouse brain cortex (without cerebellum) membranes, C57Bl/6Jhsd mice
Description: (§1) BNS compounds’ binding to CB1R and CB2R was assessed in competition displacement assays using [^3H]CP-55,940 as the radioligand and crude membranes from mouse brain or human cells overexpressing the CB1R or CB2R. All data were in triplicates with Ki values determined from three independent experiments. See SI for a detailed procedure.
Supplementary Experimental Methods
Brain membrane preparation for CB1R b i nd i ng . The mouse cortex, excluding the cerebellum, was dissected from 6-week-old C57Bl/6Jhsd mice (Harlan, Israel). The tissue was homogenized in 4 mL Buffer 1 (320 mM sucrose, 2 mM EDTA, 5 m M MgCl 2) using a glass-Teflon homogenizer and Hei-T ORQUE 200 (Heidolph; Cat# 17-012- 002- 25 -1) homogenizer set to 132 rpm. After homogenization, the mixture was centrifuged at 1,600 × g for 10 min at four °C, and the resulting supernatant was kept on ice. The pellet (P1) was discarded, and the remaining supernatant was subje cted to additional rounds of resuspension in 4 mL Buffer 1 followed by centrifugations, repeating this process three times. The pellets obtained from these centrifugations were discarded, and the three supernatant fractions were combined and subjected to higher-speed centrifugation at 39,000 × g for 15 min at f ou r °C. […] This resuspended pellet ( P 2 ) was incubated at 37 °C for 10 min and then centrifuged at 23, 000 × g for 10 min at 4°C.
After centrifugation, the pellet (P2) was resuspended in 5 mL Buffer 2 and further incubated at 30 °C for 40 min. Following this incubation, the suspension was centrifuged at 11,000 × g for 15 min at 4 °C. The pellet (P2) was resuspended in 2 mL Buffer 3 containing 50 mM TRIS HCl pH 7.4, 1 mM EDTA, and 3 mM MgCl 2. T h e protein concentration of the final suspension was determined using the BCA assay.
Subsequently, the suspension was diluted to a final concentration of 2 mg/mL in Buffer 3, aliquoted on ice, and stored at - 80 °C for further use.
(§2) CB1R and CB2R binding. Binding to the CB1R/CB2R was asse ss ed using competition displacement as says with [ 3H] CP -55,940 as the radioligand. Purified membranes from the mouse brain were utilized for CB1R assessment (as described above). Purified […]
membranes from cells overexpressing human CB2R ( Char les River CAT # A618) w e r e employed for CB2R evaluation.
For mouse CB1R binding assays, the novel compounds were dissolved in dimethyl sulfoxide (DMSO) to reach a final concentration of 10 mM. Each compound was then diluted in Buffer 3 (as described above) supplemented with 0.14% BSA, resulting in concentrations ranging from 10^-4 M to 10^-10 M. Triplicates of 100 µL of each concentration were dispensed into siliconized glass tubes. At the same time, 100 µL of Buffer 3 with 0.14% BSA was dispensed into three tubes as blanks. CB1R b r a i n membranes (20 µg) were added to each tube and diluted with 800 µL Buffer 3 with 0.14% BSA. Subsequently, 5 nM of [ 3H] CP -55,940 (100 µL) was added to each tube.
The tubes were sealed with parafilm and incubated with shaking (120 rpm) in a water bath at 30 °C for 1 hour. Following incubation, 2 mL of cold Buffer 4 (50 mM TRIS HCl pH 7.4, 1 mg/mL BSA) was added to each tube.
To harvest the content of each tube, a Brandel M-24R Vacuum Harvester was employed, with a wet WHATMAN GF/B filter paper (Fired) (one membrane for 12 tubes) placed in the harvester after being washed twice with Buffer 4. The filter membrane in the harvester absorbed the full content of each tube. Then, the filter membrane was wash ed six times with Buffer 4. Each filter -glass membrane tube wa s excised and transferred to a 20 mL glass tube co ntaining a 5 mL ULTIMA GOLD scintillation cocktail. […]

human CB2R = molecular target: T2, human CB2R (Homo sapiens, UniProt P34972); assay: Radioligand competition displacement binding, [3H]CP-55,940, membranes with human CB2R; conditions: [3H]CP-55,940 displacement, read-out: CB2R hKi
T2 construct: purchased PerkinElmer; Charles River RBXCB2M400UA; A618
Description: as §1
Supplementary Experimental Methods […]
as §2
membranes from cells overexpressing human CB2R ( Char les River CAT # A618) w e r e employed for CB2R evaluation. […]
Radioligand binding assays were performed to asse ss the binding affinity of the different compounds to hCB1R (RBHCB1M4 00UA; Per kinElmer) or hCB 2R
(RBXCB2 M400UA; PerkinElmer). Competition displacement as says w ere employed, […]
utilizing [3H] C P -55,940 as the radioligand and crude membranes from humans for CB1 R or CB2 R. T he compounds were tested at various concentrations (eight points with a five-fold serial dilution starting at two m M) , and their ability to displace [3H] CP - 55, 940 was evaluated. Upon completion of the binding assays, the reaction mixture was filtered through GF/C plates, followed by four washes with cold wash buffer. After drying for one hour, 50 μL of Perkin Elmer Microscint 20 cocktail was added to the filter plate wells, and the bound [3H] C P -55,940 radioligand was measured using a β counter. All data points were duplicated, and Ki values were determined from two independent experiments using GraphPad Prism 7.02 analysis software, extracted through nonlinear regression analysis. […]
MgCl 2. The tissue was homogenized using a glass -Teflon and Hei-T ORQUE 200 homogenizer (Heidolph; Cat#17- 012- 002- 25 -1) set to 132 rpm. The resulting suspen sion underwent centrifugation at 48,000 × g for 20 min at four °C, and the supernatant was discarded. The pellet obtained was homogenized again and subjected to a second centrifugation under the same conditions. Subsequently, the resulting pellet […]
mM EGTA, 9 mM MgCl 2, and 150 mM NaCl, followed by homogenization. The protein concentration of the suspension was determined using the BCA assay, and the suspen sion was diluted to a final concentration of 2 mg/mL in assay buffer. The prepared suspension was aliquoted on ice and stored at - 80 °C for further use.

[1] = molecular target: hERG cardiac potassium channel (Homo sapiens, UniProt Q12809); assay: hERG automated patch clamp (SyncroPatch 384PE); format: cell-based; conditions: whole cell hERG currents
[2] = [3H]CP-55,940 displacement, mouse brain membranes, read-out: CB1R mKi

T2 sequence (P34972 whole entry): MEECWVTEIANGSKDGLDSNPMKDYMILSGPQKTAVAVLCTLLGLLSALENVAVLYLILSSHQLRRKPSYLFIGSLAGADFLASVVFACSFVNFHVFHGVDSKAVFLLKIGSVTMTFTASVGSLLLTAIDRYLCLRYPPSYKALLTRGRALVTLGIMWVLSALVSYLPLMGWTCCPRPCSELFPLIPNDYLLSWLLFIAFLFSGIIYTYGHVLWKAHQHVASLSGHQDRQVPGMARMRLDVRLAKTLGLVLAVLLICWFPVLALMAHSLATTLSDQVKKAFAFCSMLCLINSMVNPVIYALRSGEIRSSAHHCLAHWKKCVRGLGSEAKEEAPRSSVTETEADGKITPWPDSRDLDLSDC
Sequence of hERG cardiac potassium channel (Q12809 whole entry): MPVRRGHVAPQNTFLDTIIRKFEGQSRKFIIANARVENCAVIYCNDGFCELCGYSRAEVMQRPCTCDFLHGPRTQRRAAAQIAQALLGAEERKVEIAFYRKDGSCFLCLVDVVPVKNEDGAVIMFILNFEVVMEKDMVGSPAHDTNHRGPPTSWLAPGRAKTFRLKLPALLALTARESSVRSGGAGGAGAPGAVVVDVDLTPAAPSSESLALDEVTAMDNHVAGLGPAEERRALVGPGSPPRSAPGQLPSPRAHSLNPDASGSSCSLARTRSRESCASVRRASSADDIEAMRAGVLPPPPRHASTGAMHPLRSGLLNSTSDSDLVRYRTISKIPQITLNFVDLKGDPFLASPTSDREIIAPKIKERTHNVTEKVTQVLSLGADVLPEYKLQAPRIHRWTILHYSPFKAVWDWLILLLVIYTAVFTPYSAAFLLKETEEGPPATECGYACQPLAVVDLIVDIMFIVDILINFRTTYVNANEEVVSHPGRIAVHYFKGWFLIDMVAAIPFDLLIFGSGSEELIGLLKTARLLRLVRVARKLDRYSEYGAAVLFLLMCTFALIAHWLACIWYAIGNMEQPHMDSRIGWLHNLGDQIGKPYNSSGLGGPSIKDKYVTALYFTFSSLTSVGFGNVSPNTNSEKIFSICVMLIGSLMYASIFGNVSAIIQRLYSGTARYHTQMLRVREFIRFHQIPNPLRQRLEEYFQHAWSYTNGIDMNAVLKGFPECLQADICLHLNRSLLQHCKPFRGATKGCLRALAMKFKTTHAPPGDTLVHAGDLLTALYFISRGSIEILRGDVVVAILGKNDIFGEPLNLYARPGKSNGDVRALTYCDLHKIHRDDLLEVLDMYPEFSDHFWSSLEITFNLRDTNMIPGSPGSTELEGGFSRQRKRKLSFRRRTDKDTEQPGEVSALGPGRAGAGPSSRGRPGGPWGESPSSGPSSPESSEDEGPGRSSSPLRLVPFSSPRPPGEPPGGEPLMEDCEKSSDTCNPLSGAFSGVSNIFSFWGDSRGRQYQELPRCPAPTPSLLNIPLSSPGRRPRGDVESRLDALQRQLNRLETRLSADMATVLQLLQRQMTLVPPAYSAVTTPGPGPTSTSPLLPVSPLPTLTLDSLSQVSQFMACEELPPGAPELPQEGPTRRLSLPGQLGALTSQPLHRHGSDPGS
T1 sequence (P47746 whole entry): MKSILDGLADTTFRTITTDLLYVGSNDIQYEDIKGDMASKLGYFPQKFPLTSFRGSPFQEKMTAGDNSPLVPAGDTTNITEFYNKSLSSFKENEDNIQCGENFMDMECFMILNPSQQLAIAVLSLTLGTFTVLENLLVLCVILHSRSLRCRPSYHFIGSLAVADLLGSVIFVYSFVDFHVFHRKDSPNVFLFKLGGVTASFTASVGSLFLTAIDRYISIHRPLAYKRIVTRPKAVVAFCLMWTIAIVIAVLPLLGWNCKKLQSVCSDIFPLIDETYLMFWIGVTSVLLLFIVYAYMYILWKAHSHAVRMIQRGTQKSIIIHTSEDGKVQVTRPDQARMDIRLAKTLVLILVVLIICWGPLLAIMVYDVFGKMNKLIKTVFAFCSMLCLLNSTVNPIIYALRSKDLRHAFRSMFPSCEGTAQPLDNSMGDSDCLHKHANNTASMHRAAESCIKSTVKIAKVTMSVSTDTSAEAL

Ki (mouse CB1R; [2]) [nM] | Ki (human CB2R) [nM] | Compound | IC50 [1] [nM] | Ki (mouse CB1R) [nM]
10 | 1650 | Cc1ccc(S(=O)(=O)NC2CCCOc3c2nn(-c2ccccc2Cl)c3-c2ccc(Cl)cc2)cc1 (stereo not drawn) [BNS807] | 18000 | –
18 | 6310 | CS(=O)(=O)N1CCC(C(=O)NC2CCCOc3c2nn(-c2ccccc2Cl)c3-c2ccc(Cl)cc2)CC1 (stereo not drawn) [BNS815, N-[2-(2-Chlorophenyl)-3-(4-chlorophenyl)-5,6,7,8-tetrahydrooxepino[3,2-c]pyrazol-8-yl]-1-methylsulfonyl-piperidine-4-carboxamide] | 4860 | –

Compound | Ki (mouse CB1R; [2]) [nM] | Ki (human CB2R) [nM] | IC50 [1] [nM] | Ki (mouse CB1R) [nM]
O=S(=O)(NC1CCCOc2c1nn(-c1ccccc1Cl)c2-c1ccc(Cl)cc1)c1ccc(Cl)cc1 (stereo not drawn) [BNS808, 4-chloro-N-[2-(2-chlorophenyl)-3-(4-chlorophenyl)-5,6,7,8-tetrahydrooxepino[3,2-c]pyrazol-8-yl]benzenesulfonamide] | – | 1930 | 5390 | 0.7
